Source: ChEMBL document CHEMBL1201862, “PubChem BioAssay data set” (2004)
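Five compound concentrations were applied to cells in 96-well plates for 48 hours; endpoints were derived by simple linear interpolation of the resulting dose-response curve. Abbreviation: GI50, concentration required for 50% inhibition of growth.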 The source made the active and inactive calls. Cut-off read from the data, not from the text of the source: active = GI50 up to about 1.1 µM and inactive = higher.

Tests used:
Assay in all cases: inhibition of tumour cell growth, NCI panel, 48 h
SNB-75 = system: SNB-75
SK-OV-3 = system: SK-OV-3
IGROV-1 = system: IGROV-1
HOP-62 = system: HOP-62
UACC-257 = system: UACC-257
A549 = system: A549
HT-29 = system: HT-29
OVCAR-8 = system: OVCAR-8
K562 = system: K562
HL-60 = system: HL-60
HCT-15 = system: HCT-15
MDA-MB-435 = system: MDA-MB-435
M14 = system: M14
CAKI-1 = system: CAKI-1
SF-539 = system: SF-539
TK-10 = system: TK-10
SK-MEL-5 = system: SK-MEL-5
OVCAR-5 = system: OVCAR-5
SR = system: SR

SMILES	GI50 (SNB-75)	GI50 (SK-OV-3)	GI50 (IGROV-1)	GI50 (HOP-62)	GI50 (UACC-257)	GI50 (A549)	GI50 (HT-29)	GI50 (OVCAR-8)	GI50 (K562)	GI50 (HL-60)	GI50 (HCT-15) [µM]	GI50 (MDA-MB-435)	GI50 (M14)	GI50 (CAKI-1)	GI50 (SF-539)	GI50 (TK-10)	GI50 (SK-MEL-5)	GI50 (OVCAR-5)	GI50 (SR)
CCOP(=O)(/C=C\n1cc(C)c(=O)[nH]c1=O)OCC	> 100 µM (inactive)	> 100 µM (inactive)	> 100 µM (inactive)	> 100 µM (inactive)	> 100 µM (inactive)	> 100 µM (inactive)	> 100 µM (inactive)	> 100 µM (inactive)	> 100 µM (inactive)	> 100 µM (inactive)	> 100	> 100 µM (inactive)	> 100 µM (inactive)	> 100 µM (inactive)	> 100 µM (inactive)	> 100 µM (inactive)	> 100 µM (inactive)	> 100 µM (inactive)	–
C=CCN(c1cc(OC)c2c(c1[N+](=O)[O-])C(C)(SC)C(=O)N2)S(C)(=O)=O (stereo not given)	91.6 µM (inactive)	> 100 µM (inactive)	> 100 µM (inactive)	–	> 100 µM (inactive)	> 100 µM (inactive)	> 100 µM (inactive)	> 100 µM (inactive)	> 100 µM (inactive)	–	> 100	> 100 µM (inactive)	–	> 100 µM (inactive)	> 100 µM (inactive)	50.5 µM (inactive)	> 100 µM (inactive)	–	31.8 µM (inactive)
COc1ccc(/C=C(/c2ccc(OC)cc2)c2c(Cl)cc(Cl)c(/C(=C\c3ccc(OC)cc3)c3ccc(OC)cc3)c2/N=N/c2ccccc2)cc1	> 100 µM (inactive)	> 100 µM (inactive)	> 100 µM (inactive)	> 100 µM (inactive)	39.7 µM (inactive)	> 100 µM (inactive)	> 100 µM (inactive)	> 100 µM (inactive)	45.1 µM (inactive)	> 100 µM (inactive)	> 100	> 100 µM (inactive)	> 100 µM (inactive)	> 100 µM (inactive)	34.4 µM (inactive)	> 100 µM (inactive)	> 100 µM (inactive)	> 100 µM (inactive)	–
CC1(C)C2CCC(=O)C1CC2 (stereo not given)	> 100 µM (inactive)	> 100 µM (inactive)	> 100 µM (inactive)	> 100 µM (inactive)	> 100 µM (inactive)	> 100 µM (inactive)	> 100 µM (inactive)	> 100 µM (inactive)	58.2 µM (inactive)	> 100 µM (inactive)	> 100	> 100 µM (inactive)	> 100 µM (inactive)	> 100 µM (inactive)	> 100 µM (inactive)	> 100 µM (inactive)	> 100 µM (inactive)	> 100 µM (inactive)	–
CSc1csc(-c2ccc(-c3ccc(-c4cc(SC)cs4)s3)s2)c1	> 100 µM (inactive)	> 100 µM (inactive)	> 100 µM (inactive)	> 100 µM (inactive)	> 100 µM (inactive)	> 100 µM (inactive)	> 100 µM (inactive)	–	> 100 µM (inactive)	–	> 100	> 100 µM (inactive)	> 100 µM (inactive)	–	> 100 µM (inactive)	> 100 µM (inactive)	> 100 µM (inactive)	> 100 µM (inactive)	> 100 µM (inactive)
Nc1ncnc2c1ncn2C(=O)NC12CC3CC(CC(C3)C1)C2	84.7 µM (inactive)	> 100 µM (inactive)	–	> 100 µM (inactive)	> 100 µM (inactive)	> 100 µM (inactive)	> 100 µM (inactive)	> 100 µM (inactive)	> 100 µM (inactive)	> 100 µM (inactive)	> 100	> 100 µM (inactive)	> 100 µM (inactive)	> 100 µM (inactive)	> 100 µM (inactive)	> 100 µM (inactive)	> 100 µM (inactive)	> 100 µM (inactive)	–
Cc1nc2ccncc2[nH]1	24.8 µM (inactive)	–	> 100 µM (inactive)	> 100 µM (inactive)	> 100 µM (inactive)	> 100 µM (inactive)	> 100 µM (inactive)	> 100 µM (inactive)	> 100 µM (inactive)	> 100 µM (inactive)	> 100	–	> 100 µM (inactive)	> 100 µM (inactive)	> 100 µM (inactive)	> 100 µM (inactive)	> 100 µM (inactive)	> 100 µM (inactive)	> 100 µM (inactive)
C=C1c2ccccc2Oc2nc3nc(N)c(C#N)c(N)c3c(N)c21	24.5 µM (inactive)	24.1 µM (inactive)	2.39 µM (inactive)	19.1 µM (inactive)	53.1 µM (inactive)	30.1 µM (inactive)	23.1 µM (inactive)	16.4 µM (inactive)	40.7 µM (inactive)	21.6 µM (inactive)	16.9	30.5 µM (inactive)	29.6 µM (inactive)	30.8 µM (inactive)	20 µM (inactive)	39.1 µM (inactive)	17.6 µM (inactive)	85.5 µM (inactive)	–
COc1ccc(-c2c(/C=N/OCC(=O)O)c3sc4ccccc4n3c2/C=N/OCC(=O)O)cc1	> 50 µM (inactive)	> 50 µM (inactive)	> 50 µM (inactive)	> 50 µM (inactive)	> 50 µM (inactive)	> 50 µM (inactive)	> 50 µM (inactive)	> 50 µM (inactive)	> 50 µM (inactive)	–	> 50	> 50 µM (inactive)	> 50 µM (inactive)	> 50 µM (inactive)	–	> 50 µM (inactive)	> 50 µM (inactive)	> 50 µM (inactive)	–
Cc1ccc(N2C=Nn3c(nc4sc5c(c4c3=O)CCCC5)C2)cc1	52 µM (inactive)	> 100 µM (inactive)	88.3 µM (inactive)	21.2 µM (inactive)	54.8 µM (inactive)	47.4 µM (inactive)	47.1 µM (inactive)	62.1 µM (inactive)	38.5 µM (inactive)	–	48.2	99.3 µM (inactive)	65.5 µM (inactive)	46 µM (inactive)	–	86.1 µM (inactive)	29.8 µM (inactive)	62.5 µM (inactive)	–
CSc1nc2c(nc(C)c(=O)n2C2OCC(OC(C)=O)C(OC(C)=O)C2OC(C)=O)c(=O)[nH]1 (stereo not given)	> 100 µM (inactive)	> 100 µM (inactive)	> 100 µM (inactive)	> 100 µM (inactive)	> 100 µM (inactive)	> 100 µM (inactive)	> 100 µM (inactive)	> 100 µM (inactive)	> 100 µM (inactive)	> 100 µM (inactive)	> 100	–	> 100 µM (inactive)	88.5 µM (inactive)	–	> 100 µM (inactive)	> 100 µM (inactive)	> 100 µM (inactive)	> 100 µM (inactive)
CN(CCNC(=O)c1cn(C)c2c1ccc1ccccc12)CCNC(=O)c1cn(C)c2c1ccc1ccccc12	1.79 µM (inactive)	8.04 µM (inactive)	1.62 µM (inactive)	1.85 µM (inactive)	2.12 µM (inactive)	3.59 µM (inactive)	6.05 µM (inactive)	27.9 µM (inactive)	0.365 µM (active)	–	1.26	2.2 µM (inactive)	1.95 µM (inactive)	2.47 µM (inactive)	1.76 µM (inactive)	1.92 µM (inactive)	2.6 µM (inactive)	1.69 µM (inactive)	–
CN(C)[C@@H]1C(O)=C(C(N)=O)C(=O)[C@@]2(O)C(O)=C3C(=O)c4c(O)cccc4C[C@H]3C[C@@H]12	1.61 µM (inactive)	1.9 µM (inactive)	2.1 µM (inactive)	2 µM (inactive)	–	2.32 µM (inactive)	1.87 µM (inactive)	2.89 µM (inactive)	2.51 µM (inactive)	2 µM (inactive)	4.8	–	1.99 µM (inactive)	1.98 µM (inactive)	2 µM (inactive)	2.52 µM (inactive)	1.75 µM (inactive)	2.09 µM (inactive)	2.56 µM (inactive)
CC12CCC(=O)N1[C@@H](c1ccccc1)[C@@H](c1ccccc1)O2 (stereo not given in full)	> 100 µM (inactive)	68.9 µM (inactive)	> 100 µM (inactive)	> 100 µM (inactive)	> 100 µM (inactive)	> 100 µM (inactive)	> 100 µM (inactive)	> 100 µM (inactive)	> 100 µM (inactive)	> 100 µM (inactive)	> 100	–	> 100 µM (inactive)	> 100 µM (inactive)	> 100 µM (inactive)	–	> 100 µM (inactive)	> 100 µM (inactive)	–
COCP1(=S)OC(C)CCN1C(C)C (stereo not given)	–	> 100 µM (inactive)	> 100 µM (inactive)	> 100 µM (inactive)	> 100 µM (inactive)	> 100 µM (inactive)	> 100 µM (inactive)	> 100 µM (inactive)	> 100 µM (inactive)	–	> 100	> 100 µM (inactive)	> 100 µM (inactive)	> 100 µM (inactive)	> 100 µM (inactive)	> 100 µM (inactive)	> 100 µM (inactive)	> 100 µM (inactive)	> 100 µM (inactive)
Clc1n[nH]c2ccccc12	> 100 µM (inactive)	> 100 µM (inactive)	> 100 µM (inactive)	> 100 µM (inactive)	> 100 µM (inactive)	> 100 µM (inactive)	> 100 µM (inactive)	> 100 µM (inactive)	> 100 µM (inactive)	> 100 µM (inactive)	> 100	> 100 µM (inactive)	> 100 µM (inactive)	–	> 100 µM (inactive)	> 100 µM (inactive)	> 100 µM (inactive)	> 100 µM (inactive)	–
